Measurements: EP0532446A1, “Use of xanthines in the treatment or prevention of hypeoglycemia” (NOVO NORDISK A/S, priority 1991, dated 1993)
Several values for one entry are separate records, joined by “and”; a condition that tells them apart may be missing. Identical values can stand only once.

Tests used:
Format in all cases: in vivo
[1] = Influence of theophyllamine on the blood glucose level after insulin-induced hypoglycaemia in diabetic patients
Description: (§1) Under carefully controlled conditions hypoglycaemia was induced in each of nine diabetic patients by injection of Actrapid® Human insulin, 0.15 IU/kg (available from Novo Nordisk A/S, Bagsvaerd, Denmark). The blood glucose level was monitored from just before the injection of the insulin took place until 2 hours after. The basal level, the nadir level and the level after 1 hour and 2 hours for each subject are given in Table 2 under the entry "placebo".
(§2) On a different day a study similar to the one described above was performed on the same patients, the only difference being that in this second study theophyllamine was administered concomitantly with the insulin. The theophyllamine was administered in the form of a bolus injection of 220 mg per person followed by a constant rate infusion of theophyllamine of 2,5 mg/kg body weight/hour. The corresponding glucose levels are given in Table 2 under the entry "theophyllamine".

[2] = Awareness of early hypoglycaemia warning symptoms in diabetic patients taking theophyllamine regularly; details: some diabetic patients who have taken theophyllamine regularly as a preventive measure
From the text: Usually hypoglycaemia can be relieved by administration of glucose or glucagon. Normally, but not always, a hypoglycaemic episode is preceded by some early warning symptoms which makes it possible for the patient to take measures against it. Throughout this specification the diabetic patients' attention to these early warning symptoms is in accordance with the common usage referred to as the "awareness".

[3] = Influence of theophyllamine on the blood glucose level after insulin-induced hypoglycaemia in healthy subjects
Description: as §1, with “of eleven healty subjects” for “of nine diabetic patients”, “Table 1” for “Table 2”
as §2, with “same subjects,” for “same patients,”, “person given at the same time as the insulin” for “person”, “Table 1” for “Table 2”

[4] = diabetic patients, given concomitantly with the insulin
[5] = individual diabetic patients No. 1-9, insulin 0.15 IU/kg, theophyllamine bolus 220 mg per person + infusion 2,5 mg/kg body weight/hour
[6] = mean of nine diabetic patients, insulin 0.15 IU/kg, theophyllamine bolus 220 mg per person + infusion 2,5 mg/kg body weight/hour
[7] = healthy subjects, given concomitantly with the insulin
[8] = individual healthy subjects No. 1-11, insulin 0.15 IU/kg, theophyllamine bolus 220 mg per person + infusion 2,5 mg/kg body weight/hour
[9] = mean of eleven healthy subjects, insulin 0.15 IU/kg, theophyllamine bolus 220 mg per person + infusion 2,5 mg/kg body weight/hour

Cn1c(=O)c2[nH]cnc2n(C)c1=O [Theophyllamine, theophyllamine]
glucose level 1 hour after the administration of insulin compared with insulin alone (placebo) [1, 4]: higher
glucose level 2 hours after the administration of insulin compared with insulin alone (placebo) [1, 4]: higher
nadir level compared with insulin alone (placebo) [1, 4]: higher
Nadir Level (blood glucose) [1, 5]: 1.5 mmol/l (2×) and 4.1 mmol/l and 1.1 mmol/l (2×) and 1.7 mmol/l and 2.6 mmol/l and 1.4 mmol/l and 2.2 mmol/l
blood glucose level 1 hr after insulin [1, 5]: 2.9 mmol/l (2×) and 2.1 mmol/l (3×) and 4.4 mmol/l and 1.9 mmol/l and 2.5 mmol/l (2×)
blood glucose level 2 hr after insulin [1, 5]: 4.8 mmol/l and 3.7 mmol/l (2×) and 6.4 mmol/l and 3.1 mmol/l and 3.0 mmol/l (3×) and 3.8 mmol/l
Basal Level (blood glucose) ([1]; individual diabetic patients No. 1-9, just before injection of insulin 0.15 IU/kg and theophyllamine): 4.8 mmol/l and 4.5 mmol/l (2×) and 5.5 mmol/l and 4.6 mmol/l and 5.6 mmol/l and 4.7 mmol/l and 6.0 mmol/l and 4.9 mmol/l
Nadir level (blood glucose), MEAN [1, 6]: 2.2 mmol/L
blood glucose level 1 hr after insulin, MEAN [1, 6]: 2.6 mmol/L
blood glucose level 2 hr after insulin, MEAN [1, 6]: 3.8 mmol/L
Basal Level (blood glucose), MEAN ([1]; mean of nine diabetic patients, just before injection of insulin 0.15 IU/kg and theophyllamine): 5.0 mmol/L
awareness [2]: improved awareness
glucose level 1 hour after the administration of insulin compared with insulin alone (placebo) [3, 7]: higher
glucose level 2 hours after the administration of insulin compared with insulin alone (placebo) [3, 7]: higher
nadir level compared with insulin alone (placebo) [3, 7]: higher
Nadir Level (blood glucose) [3, 8]: 1.5 mmol/l (2×) and 1.3 mmol/l (2×) and 1.4 mmol/l and 2.0 mmol/l (2×) and 1.9 mmol/l and 1.6 mmol/l and 1.7 mmol/l and 2.4 mmol/l
blood glucose level 1 hr after insulin [3, 8]: 2.7 mmol/L and 2.4 mmol/L and 2.3 mmol/L and 3.1 mmol/L and 2.8 mmol/L and 2.5 mmol/L and 3.0 mmol/L and 3.8 mmol/L and 2.6 mmol/L and 3.4 mmol/L and 2.0 mmol/L
blood glucose level 2 hr after insulin [3, 8]: 3.9 mmol/l and 2.6 mmol/l and 3.1 mmol/l and 4.3 mmol/l (2×) and 4.1 mmol/l and 3.5 mmol/l (2×) and 4.5 mmol/l and 5.4 mmol/l and 5.1 mmol/l
Basal Level (blood glucose) ([3]; individual healthy subjects No. 1-11, just before injection of insulin 0.15 IU/kg and theophyllamine): 5.2 mmol/l (4×) and 5.0 mmol/l (2×) and 5.9 mmol/l and 5.8 mmol/l (2×) and 5.6 mmol/l and 5.7 mmol/l
Nadir level (blood glucose), MEAN [3, 9]: 1.7 mmol/L
blood glucose level 1 hr after insulin, MEAN [3, 9]: 2.8 mmol/L
blood glucose level 2 hr after insulin, MEAN [3, 9]: 4.0 mmol/L
Basal Level (blood glucose), MEAN ([3]; mean of eleven healthy subjects, just before injection of insulin 0.15 IU/kg and theophyllamine): 5.4 mmol/L
